Experimental data reported in patent publication US20140350081A1, “INSECT G-COUPLED RECEPTORS USEFUL AS TARGETS FOR INSECTICIDES AND COMPOUNDS AND REAGENTS IDENTIFIED USING THE SAME” (priority 2011, published 2014).
Where a name gives a salt, the structure may show the parent alone. Read-outs that look alike come from different tables or passages of the source.

How the values were obtained:
Isdop2 = Isdop2 (Ixodes scapularis, UniProt A0ACM8DGL0); assay: cell-based; conditions: for inhibition at 10 µM: read-out: % Inhibition (of response to dopamine), Isdop2 screen
Sequence of Isdop2 (A0ACM8DGL0 entry or part of it): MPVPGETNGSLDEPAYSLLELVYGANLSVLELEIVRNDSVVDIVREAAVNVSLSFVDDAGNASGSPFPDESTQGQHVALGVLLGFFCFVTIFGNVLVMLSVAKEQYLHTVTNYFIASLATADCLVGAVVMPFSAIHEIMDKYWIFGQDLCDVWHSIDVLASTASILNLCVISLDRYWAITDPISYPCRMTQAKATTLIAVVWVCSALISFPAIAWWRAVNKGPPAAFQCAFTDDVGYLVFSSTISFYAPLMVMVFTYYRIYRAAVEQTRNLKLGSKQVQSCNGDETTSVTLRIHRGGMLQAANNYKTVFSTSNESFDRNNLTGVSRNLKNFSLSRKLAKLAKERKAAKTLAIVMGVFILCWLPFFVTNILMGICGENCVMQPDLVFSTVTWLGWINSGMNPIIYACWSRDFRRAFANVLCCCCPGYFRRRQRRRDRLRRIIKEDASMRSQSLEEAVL

Ae. aegypti L3 larvae = assay: whole plant or invertebrate; conditions: Aedes aegypti
[1] = 10 μM compound, footnote 3 mM dopamine
[2] = 0.5 h, read-out: percent mortality 0.5 hr, 400 uM, L3 larvae, value for this scoring time
[3] = 1 h, read-out: percent mortality 1 hr, 400 uM, L3 larvae, per scoring time
[4] = 2 h, read-out: percent mortality 2 hr, 400 uM, L3 larvae, per scoring time
[5] = 3 h, read-out: percent mortality 3 hr, 400 uM, L3 larvae, per scoring time
[6] = 4 h, read-out: percent mortality 4 hr, 400 uM, L3 larvae, per scoring time
[7] = 24 h, read-out: Toxicity to Aedes aegypti larvae (mortality) 24 hours, 400 μM, L3 larvae, three independent experiments
[8] = 24 h, read-out: percent mortality 24 hr, 400 uM, L3 larvae, per scoring time
[9] = 48 h, read-out: Toxicity to Aedes aegypti larvae (mortality) 48 hours, 400 μM, L3 larvae, three independent experiments
[10] = 48 h, read-out: percent mortality 48 hr, 400 uM, L3 larvae, per scoring time
[11] = 72 h, read-out: Cumulative % Mortality (72 hrs), 400 uM, L3 larvae
[12] = 72 h, read-out: Toxicity to Aedes aegypti larvae (mortality) 72 hours, 400 μM, L3 larvae, three independent experiments
[13] = 72 h, read-out: percent mortality 72 hr, 400 uM, L3 larvae, per scoring time
[14] = […], read-out: percent mortality […], 400 uM, L3 larvae, per scoring time

CC1CNCCN1S(=O)(=O)c1cccc2cnccc12.Cl.Cl (centres unmarked) [H-7 dihydrochloride]
% Inhibition (of response to dopamine), Isdop2 screen (Isdop2): 73%

COc1cccc(-c2cc(=O)c3ccccc3o2)c1N [PD 98,059]
% Inhibition (of response to dopamine), Isdop2 screen (Isdop2; [1]): 87%

CC(=O)c1c(O)c(C)c(O)c(Cc2c(O)c3c(c(C(=O)/C=C/c4ccccc4)c2O)OC(C)(C)C=C3)c1O [Rottlerin]
inhibition at 10 µM (Isdop2): 97%

c1ccc2c(c1)[I+]c1ccccc1-2 [Diphenyleneiodonium chloride]
inhibition at 10 µM (Isdop2): 78%

Cc1nc2n(c(=O)c1CCN1CCC(c3noc4cc(F)ccc34)CC1)CCCC2 [Risperidone, 4-[2-[4-(6-fluorobenzo[d]isoxazol-3-yl)-1-piperidyl]ethyl]-3-methyl-2,6-diazabicyclo[4.4.0]deca-1,3-dien-5-one]
inhibition at 10 µM (Isdop2): 100%

NC(=Nc1ccccc1)NC(=O)c1nc(Cl)c(N)nc1N [Phenamil methanesulfonate]
inhibition at 10 µM (Isdop2): 72%

O=c1c(-c2ccc(O)cc2)coc2cc(O)ccc12 [Daidzein]
inhibition at 10 µM (Isdop2): 77%

COc1ccccc1N1CCN(CCCCN2C(=O)c3ccccc3C2=O)CC1 [NAN-190 hydrobromide]
inhibition at 10 µM (Isdop2): 69%

CN(C)CCC=C1c2ccccc2C=Cc2ccccc21 [Cyclobenzaprine]
inhibition at 10 µM (Isdop2): 95%

O=c1c(-c2ccc(O)cc2)coc2cc(O)cc(O)c12 [Genistein]
inhibition at 10 µM (Isdop2): 71%

CN1[C@@H]2CC[C@H]1C[C@@H](OC(c1ccccc1)c1ccccc1N)C2 (some centres unmarked) [Aminobenztropine]
inhibition at 10 µM (Isdop2): 71%

Cc1ccc(O)c(N=Nc2ccccc2)n1 [SIB 1757]
% Inhibition (of response to dopamine), Isdop2 screen (Isdop2; [1]): 100%

Cc1cc(N)c2ccccc2[n+]1CCCCCCCCCC[n+]1c(C)cc(N)c2ccccc21 [Dequalinium dichloride]
inhibition at 10 µM (Isdop2): 75%

CN1CCN(CCCN2c3ccccc3Sc3ccc(C(F)(F)F)cc32)CC1 [Trifluoperazine, 10-[3-(4-methylpiperazin-1-yl)propyl]-2-(trifluoromethyl)-10H-phenothiazine]
inhibition at 10 µM (Isdop2): 76%

C[C@@H]1O[C@@H](O[C@H]2C[C@@H](O)[C@]3(CO)[C@H]4[C@H](O)C[C@]5(C)[C@@H](C6=CC(=O)OC6)CC[C@]5(O)[C@@H]4CC[C@]3(O)C2)[C@H](O)[C@H](O)[C@H]1O [Ouabain]
inhibition at 10 µM (Isdop2): 86%

COC1=C(OC)C(=O)c2ccccc2C1=O [2,3-Dimethoxy-1,4-naphthoquinone]
inhibition at 10 µM (Isdop2): 68%

CSc1ccc2c(c1)N(CCC1CCCCN1C)c1ccccc1S2 (racemic) [Thioridazine, 10-{2-[(RS)-1-Methylpiperidin-2-yl]ethyl}-2-methylsulfanylphenothiazine]
inhibition at 10 µM (Isdop2): 85%

CCn1cnc2c(Nc3cccc(Cl)c3)nc(N[C@@H]3CCCC[C@@H]3N)nc21.Cl [CGP-74514A hydrochloride]
% Inhibition (of response to dopamine), Isdop2 screen (Isdop2): 98%

Br.CN1CCc2cc(O)c(O)cc2C(c2ccccc2)C1 (centres unmarked) [SKF 75670 hydrobromide]
% Inhibition (of response to dopamine), Isdop2 screen (Isdop2): 68%

C[n+]1cc2c3c(ccc2c2ccc4cc5c(cc4c21)OCO5)OCO3 [Sanguinarine chloride]
inhibition at 10 µM (Isdop2): 100%

(±)-Butaclamol hydrochloride
% Inhibition (of response to dopamine), Isdop2 screen (Isdop2): 86%

O=C(c1ccc(F)cc1)C1CCN(CCn2c(=O)[nH]c3ccccc3c2=O)CC1 [Ketanserin]
mortality at 400 µM (Ae. aegypti L3 larvae; [2]): 0%
mortality at 400 µM (Ae. aegypti L3 larvae; [3]): 0%
mortality at 400 µM (Ae. aegypti L3 larvae; [4]): 0%
mortality at 400 µM (Ae. aegypti L3 larvae; [5]): 0%
mortality at 400 µM (Ae. aegypti L3 larvae; [6]): 0%
mortality at 400 µM (Ae. aegypti L3 larvae; [7]): 0%
mortality at 400 µM (Ae. aegypti L3 larvae; [8]): 0%
mortality at 400 µM (Ae. aegypti L3 larvae; [9]): 0%
mortality at 400 µM (Ae. aegypti L3 larvae; [10]): 0%
mortality at 400 µM (Ae. aegypti L3 larvae; [11]): 0%
mortality at 400 µM (Ae. aegypti L3 larvae; [12]): 0%
mortality at 400 µM (Ae. aegypti L3 larvae; [13]): 0%
mortality at 400 µM (Ae. aegypti L3 larvae; [14]): 0%

CC(C)(C)c1cc(/C=C(\C#N)C(N)=S)cc(C(C)(C)C)c1O [Tyrphostin AG 879]
% Inhibition (of response to dopamine), Isdop2 screen (Isdop2): 75%

Clc1ccc2c(c1)C(N1CCNCC1)=Nc1ccccc1O2 [Amoxapine, 2-Chloro-11-(piperazin-1-yl)dibenzo[b,f][1,4]oxazepine]
inhibition at 10 µM (Isdop2): 92%

CN1CCN2c3ccccc3Cc3ccccc3C2C1 (racemic) [Mianserin, ((±)-2-methyl-1,2,3,4,10,14b-hexahydrodibenzo[c,f]pyrazino [1,2-a]azepine)]
inhibition at 10 µM (Isdop2): 87%

C[C@@H]1O[C@@H](O[C@H]2C[C@@H](O)[C@]3(CO)[C@H]4[C@H](O)C[C@]5(C)[C@@H]([C@@H]6COC(=O)C6)CC[C@]5(O)[C@@H]4CC[C@]3(O)C2)[C@H](O)[C@H](O)[C@H]1O [Dihydroouabain]
% Inhibition (of response to dopamine), Isdop2 screen (Isdop2; [1]): 76%

OC[C@H]1O[C@@H](n2cnc3ccccc32)[C@H](O)[C@@H]1O [D-ribofuranosylbenzimidazole]
% Inhibition (of response to dopamine), Isdop2 screen (Isdop2; [1]): 82%

O=c1cc(-c2ccc(O)cc2)oc2cc(O)cc(O)c12 [Apigenin]
inhibition at 10 µM (Isdop2): 98%

O=C1Nc2ccc(I)cc2/C1=C/c1cc(Br)c(O)c(Br)c1 [GW5074]
% Inhibition (of response to dopamine), Isdop2 screen (Isdop2): 81%

CN1CCC(=C2c3ccccc3C=Cc3ccccc32)CC1 [Cyproheptadine]
inhibition at 10 µM (Isdop2): 93%

O=C(N[C@@H](Cc1ccccc1)C(=O)CCl)OCc1ccccc1 [Z-L-Phe chloromethyl ketone]
% Inhibition (of response to dopamine), Isdop2 screen (Isdop2): 90%

CN1CCN(CC(=O)N2c3ccccc3C(=O)Nc3cccnc32)CC1 [Pirenzepine]
mortality at 400 µM (Ae. aegypti L3 larvae; [2]): 0%
mortality at 400 µM (Ae. aegypti L3 larvae; [3]): 0%
mortality at 400 µM (Ae. aegypti L3 larvae; [4]): 0%
mortality at 400 µM (Ae. aegypti L3 larvae; [5]): 0%
mortality at 400 µM (Ae. aegypti L3 larvae; [6]): 0%
mortality at 400 µM (Ae. aegypti L3 larvae; [7]): 0%
mortality at 400 µM (Ae. aegypti L3 larvae; [8]): 0%
mortality at 400 µM (Ae. aegypti L3 larvae; [9]): 0%
mortality at 400 µM (Ae. aegypti L3 larvae; [10]): 0%
mortality at 400 µM (Ae. aegypti L3 larvae; [11]): 0%
mortality at 400 µM (Ae. aegypti L3 larvae; [12]): 0%
mortality at 400 µM (Ae. aegypti L3 larvae; [13]): 0%
mortality at 400 µM (Ae. aegypti L3 larvae; [14]): 0%

OCCN1CCN(CCCN2c3ccccc3Sc3ccc(C(F)(F)F)cc32)CC1 [Fluphenazine, 2-[4-[3-[2-(trifluoromethyl)-10H-phenothiazin-10-yl]propyl]piperazin-1-yl]ethanol]
inhibition at 10 µM (Isdop2): 79%

CC(C)(C)c1cc(C=C(C#N)C#N)cc(C(C)(C)C)c1O [Tyrphostin A9]
% Inhibition (of response to dopamine), Isdop2 screen (Isdop2; [1]): 87%

CN1CCN(CCCN2c3ccccc3Sc3ccc(Cl)cc32)CC1 [Prochlorperazine, 2-chloro-10-[3-(4-methyl-1-piperazinyl)propyl]-10H-phenothiazine]
inhibition at 10 µM (Isdop2): 86%

CC[C@H](CO)Nc1nc(NCc2ccccc2)c2ncn(C(C)C)c2n1 [Roscovitine]
inhibition at 10 µM (Isdop2): 91%

CN1CCc2cccc(Cl)c2CC1 [SKF86466]
% Inhibition (of response to dopamine), Isdop2 screen (Isdop2; [1]): 86%

CCN(CC)C(=O)N[C@H]1C[C@@H]2c3cccc4[nH]cc(c34)C[C@H]2N(C)C1 [R(+)-Terguride]
% Inhibition (of response to dopamine), Isdop2 screen (Isdop2): 68%

O=C1Nc2ccccc2/C1=C1/Nc2ccccc2/C1=N\O [Indirubin-3′-oxime]
% Inhibition (of response to dopamine), Isdop2 screen (Isdop2): 93%

C=C(C)[C@H]1Cc2c(ccc3c2O[C@@H]2COc4cc(OC)c(OC)cc4[C@@H]2C3=O)O1 [Rotenone]
inhibition at 10 µM (Isdop2): 77%

CNCCC(Oc1ccc(C(F)(F)F)cc1)c1ccccc1 (centres unmarked) [Fluoxetine]
mortality at 400 µM (Ae. aegypti L3 larvae; [7]): 43%
mortality at 400 µM (Ae. aegypti L3 larvae; [9]): 53%
mortality at 400 µM (Ae. aegypti L3 larvae; [12]): 53%

COc1ccccc1N1CCN(CCCCNC(=O)c2ccc3ccccc3c2)CC1 [BP 897]
inhibition at 10 µM (Isdop2): 71%
